Literature values as cited in US20060234297A1, “Screening method” (priority 2003, published 2006).

Tests used:
[1] = test system: mouse macrophages stimulated with phorbol ester or tumor necrosis factor (TNF-α)
[2] = test system: progression of arteriosclerosis; conditions: clinical study

SMILES: CCOC(=O)C1=C(C)NC(C)=C(C(=O)OCC)C1c1ccccc1/C=C/C(=O)OC(C)(C)C [lacidipine]
- MMP-9 secretion and production [1]: suppressed MMP-9 secretion and production
- effect on the progression of arteriosclerosis [2]: suppressive effect on the progression of arteriosclerosis
